The values that follow are results of earlier work, collected in publication PMC2833348 (Bioorganic & medicinal chemistry letters, 2010).

As usually defined, the IC50 is the concentration that inhibits the measured activity by half.

The series deals with cell - cell fusion (CCF). To be noted: read-out: IC50 against cell - cell fusion (CCF).

Take `COc1ccc(S(=O)(=O)O)cc1/N=N/c1c(S(=O)(=O)O)cc2cc(Nc3nc(Nc4ccccc4)nc(Nc4cc(C)c(/N=N/c5cc(S(=O)(=O)O)cc6cc(S(=O)(=O)O)cc(O)c56)cc4OC)n3)ccc2c1O` [ADS-J1]: the IC50 was 4.2 µM.
